This passage reports Ki results from ChEMBL document CHEMBL1128530, “Alpha- and beta-adrenoceptors: from the gene to the clinic. 1. Molecular biology and adrenoceptor subclassification” (J Med Chem, 1995).

Molecules are shown by their SMILES.

Experiment [1] addresses T1, Alpha-1A adrenergic receptor (Homo sapiens, UniProt P35348).
T1 sequence (P35348 whole entry): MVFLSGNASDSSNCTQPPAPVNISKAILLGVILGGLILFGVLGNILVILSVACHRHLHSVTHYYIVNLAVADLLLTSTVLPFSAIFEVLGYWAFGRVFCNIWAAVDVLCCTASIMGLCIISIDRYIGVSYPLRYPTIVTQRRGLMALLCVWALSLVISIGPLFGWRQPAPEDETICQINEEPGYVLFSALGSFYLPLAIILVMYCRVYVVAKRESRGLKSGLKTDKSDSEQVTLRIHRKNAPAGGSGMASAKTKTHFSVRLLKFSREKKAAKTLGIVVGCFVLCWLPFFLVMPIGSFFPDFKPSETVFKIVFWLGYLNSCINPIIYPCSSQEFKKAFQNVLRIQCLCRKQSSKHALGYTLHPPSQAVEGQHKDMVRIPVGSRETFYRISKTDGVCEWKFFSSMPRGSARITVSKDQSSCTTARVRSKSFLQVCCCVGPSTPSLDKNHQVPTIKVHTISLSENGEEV
Description: Binding affinity against Alpha-1A adrenergic receptor from human clone.

Experiment [2] has as its target T2, Alpha-1A adrenergic receptor (Bos taurus, UniProt P18130).
T2 sequence (P18130 whole entry): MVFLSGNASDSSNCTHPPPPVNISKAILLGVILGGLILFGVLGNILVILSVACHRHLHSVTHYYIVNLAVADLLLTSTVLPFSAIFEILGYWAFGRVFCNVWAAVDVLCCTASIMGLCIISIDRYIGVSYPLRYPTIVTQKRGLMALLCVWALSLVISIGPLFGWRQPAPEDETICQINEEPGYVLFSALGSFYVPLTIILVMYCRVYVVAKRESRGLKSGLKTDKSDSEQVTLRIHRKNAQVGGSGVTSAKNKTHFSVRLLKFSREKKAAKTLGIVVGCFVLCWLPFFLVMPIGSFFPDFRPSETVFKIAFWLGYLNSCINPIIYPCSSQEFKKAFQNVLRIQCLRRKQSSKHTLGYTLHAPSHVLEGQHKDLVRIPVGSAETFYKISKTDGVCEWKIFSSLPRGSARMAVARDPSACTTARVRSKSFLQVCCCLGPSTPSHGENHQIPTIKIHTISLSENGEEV
The experiment in a line: Binding affinity against Alpha-1A adrenergic receptor from bovine clone.

The term Ki denotes the dissociation constant of the complex between target and ligand, obtained from inhibition or displacement. Turning to `COc1cccc(OC)c1OCCNCC1COc2ccccc2O1` (configuration not stated), the Ki in experiment [1] turned out to be 0.37 nM; in experiment [2], 0.35 nM.
